What was measured:
[1] = test system: dog atrial muscle; experiment: Conventional microelectrode action potential recording, dog atrial muscle; conditions: for APA / APD50 / APD90 / RP / Vmax: atrial muscle, CL = 1000 ms, n = 11
Description: The effects of SZV-2649 on action potentials were studied in dog ventricular, atrial and Purkinje fiber preparations.
Action potentials were recorded in cardiac ventricular trabeculae and papillary muscle preparations obtained from the right ventricles of Beagle dogs (10–15 kg) of either sex using the conventional microelectrode technique. Dogs were sacrificed by iv. sedation with xylazine (1 mg/kg), followed by i.v. administration of 50 mg/kg pentobarbital. After the cornea reflex disapeared the chest was opened, and the heart was rapidly removed. The heart was immediately rinsed in oxygenated modified Locke’s solution containing (in mM): NaCl 128.3, KCl 4, CaCl2 1.8, MgCl2 0.42, NaHCO3 21.4, and glucose 10. The pH of this solution was set between 7.35 and 7.4 when gassed with the mixture of 95% O2 and 5% CO2 at 37 °C.
Isolated papillary muscle or atrial trabecula and Purkinje fiber preparations were obtained and prepared from the right ventricle and were individually mounted in a tissue chamber with the volume of 50 ml. Each preparation was initially stimulated through a pair of platinum electrodes in contact with the preparation using rectangular current pulses of 2 ms duration. These stimuli were delivered at a constant cycle length of 1000 ms for at least 60 min allowing the preparation to equilibrate before the measurements were initiated. Transmembrane potentials were recorded using conventional glass microelectrodes, filled with 3 M KCl and having tip resistances of 5–20 MΩ, connected to the input of a high impedance electrometer (Experimetria, type 309, Budapest, Hungary) which was coupled to a dual beam oscilloscope. […] Stimulation with a constant cycle length of 1000 ms was applied in the course of all experiments. Attempts were made to maintain the same impalement throughout each experiment. In case an impalement became dislodged, adjustment was attempted, and if the action potential characteristics of the re-established impalement deviated by less than 5% from the previous measurement, the experiment continued[64]–[67]. All measurements were carried out at 37 °C.

[2] = target: T1, hERG (Kv11.1) potassium channel (Homo sapiens, UniProt Q12809); experiment: Automated planar patch-clamp, hERG current in HEK cells; assay type: cell-based
T1 construct: host or cells: HEK293
Source text: Inhibition of the hERG channel, the pore forming α-subunit of the native IKr cardiac potassium channel, is expected to prolong repolarization both in the atria and in the ventricles. The GIRK channel is the pore forming α-subunit of the acetylcholine-activated potassium channel and plays an important role in atrial electrophysiology. Its inhibition can be expected to decrease the acetylcholine-activated potassium current (IKACh), a current that plays an important role in the pathogenesis of AF. Therefore, the effects of SZV-2649 on the hERG and GIRK ion channels were studied by the planar patch-clamp technique in mammalian HEK cell lines stably expressing these channels.
The currents conducted by the hERG and GIRK channels were measured by using planar patch-clamp technology[,[47],[68] in the whole-cell configuration with a four-channel medium-throughput fully automated patch-clamp platform (Patchliner Quattro, Nanion Technologies GmbH, Munich, Germany) with integrated temperature control. Data acquisition and online analysis were performed with an EPC-10 Quadro patch-clamp amplifier (HEKA Elektronik Dr Schulze GmbH, Lambrecht/Pfalz, Germany), using PatchMaster 2.65 software (HEKA Elektronik Dr. Schulze GmbH). The pipetting protocols were controlled by PatchControlHT 1.09.30 software (Nanion Technologies GmbH). […]

T1 sequence (Q12809 whole entry): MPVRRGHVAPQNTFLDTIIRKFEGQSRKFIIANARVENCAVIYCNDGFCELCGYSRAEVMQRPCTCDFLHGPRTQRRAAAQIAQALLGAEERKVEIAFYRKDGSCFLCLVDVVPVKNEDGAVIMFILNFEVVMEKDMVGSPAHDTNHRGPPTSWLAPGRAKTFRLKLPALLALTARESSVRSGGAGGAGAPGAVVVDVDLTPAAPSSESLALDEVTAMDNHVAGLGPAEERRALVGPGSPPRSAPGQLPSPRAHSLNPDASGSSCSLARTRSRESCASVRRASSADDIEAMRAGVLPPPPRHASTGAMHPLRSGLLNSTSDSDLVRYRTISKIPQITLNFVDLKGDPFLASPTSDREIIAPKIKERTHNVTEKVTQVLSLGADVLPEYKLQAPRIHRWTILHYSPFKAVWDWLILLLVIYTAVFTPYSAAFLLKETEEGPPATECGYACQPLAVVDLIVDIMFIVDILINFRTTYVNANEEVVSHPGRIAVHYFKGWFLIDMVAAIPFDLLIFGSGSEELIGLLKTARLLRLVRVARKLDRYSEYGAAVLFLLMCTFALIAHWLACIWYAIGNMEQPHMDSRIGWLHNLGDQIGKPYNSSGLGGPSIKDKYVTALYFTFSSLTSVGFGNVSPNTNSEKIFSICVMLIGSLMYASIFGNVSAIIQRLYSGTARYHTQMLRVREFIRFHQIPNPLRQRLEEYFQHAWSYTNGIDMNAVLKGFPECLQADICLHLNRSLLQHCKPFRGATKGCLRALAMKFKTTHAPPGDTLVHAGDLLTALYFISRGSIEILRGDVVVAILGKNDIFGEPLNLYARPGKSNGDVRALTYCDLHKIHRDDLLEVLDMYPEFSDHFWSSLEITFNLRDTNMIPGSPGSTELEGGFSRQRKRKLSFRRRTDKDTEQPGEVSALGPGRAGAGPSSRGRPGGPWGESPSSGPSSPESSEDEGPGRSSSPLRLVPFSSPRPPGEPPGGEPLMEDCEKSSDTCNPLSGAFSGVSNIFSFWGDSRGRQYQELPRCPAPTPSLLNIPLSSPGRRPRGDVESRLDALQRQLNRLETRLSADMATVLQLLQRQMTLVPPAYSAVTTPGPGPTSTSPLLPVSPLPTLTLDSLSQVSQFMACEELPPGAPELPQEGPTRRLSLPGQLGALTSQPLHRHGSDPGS

CC(N)COc1c(I)cc(C#N)cc1I.Cl (stereo not shown) [SZV-2649, 4-(2-aminopropoxy)-3,5-diiodobenzonitrile hydrochloride]
APA ([1]; 5 µM): 108.8 ± 1.9 mV
APD50 ([1]; 5 µM): 73.3 ± 6.2 ms
APD90 ([1]; 5 µM): 168.9 ± 8.8 ms
RP ([1]; 5 µM): −88.2 ± 1.8 mV
Vmax ([1]; 5 µM): 195.3 ± 22.0 V/s
APA ([1]; 10 µM): 102.6 ± 3.2 mV
APD50 ([1]; 10 µM): 70.1 ± 6.2 ms
APD90 ([1]; 10 µM): 176.8 ± 8.5 ms
RP ([1]; 10 µM): −85.1 ± 1.7 mV
Vmax ([1]; 10 µM): 145.9 ± 12.1 V/s
Prolongation of repolarization (APD) in the absence of carbachol ([1]; 10 µM, dog atrial muscle): 10%
IC50 ([2]; HEK cells (abstract)): 342 nM
IC50 at 3 min ([2]; human, HEK293 cells stably expressing hERG (Kv11.1), pH 7.4, printed in picture of Fig. 2b, read-out: Effect on hERG: EC50): 342 nM
